Consider five compounds from US20040249122A1, “Cationic, amphipathic beta-sheet peptides and uses thereof” (priority 2003, published 2004).

Series [1] relates to Escherichia coli (ATCC 25922). The format is cell-based. Particulars: ATCC 25922. On the procedure:
(§1) Antimicrobial and Hemolytic Assays. Antimicrobial susceptibility testing against Staphylococcus aureus (ATCC 29213), Escherichia coli (ATCC 25922), and Pseudomonas aeruginosa (ATCC 27853) was performed using a modification of the National Committee for Clinical Laboratory Standards microdilution broth assay (22). Mueller-Hinton broth (BBL) was used for diluting the peptide stock solution and for diluting the bacterial inoculum. The inoculum was prepared from mid-logarithmic phase cultures. […] The final concentration of peptide solution ranged-from 0.25 to 256 μg/mL in two-fold dilutions. The final concentration of bacteria in the wells was 5×10^5 CFU/mL. Peptides were tested in duplicate. In addition to the test peptide, three standard peptides and a non-treated growth control were included to validate the assay. The microtiter plates were incubated overnight at 37° C. and the absorbance was measured at 600 nm. […] After incubation at 37° C. for 30 min, the suspension was centrifuged at 10,000×g for 10 min and the absorbance at 400 nm was measured.

Series [2] deals with Pseudomonas aeruginosa (ATCC 27853). The format is cell-based. Conditions: ATCC 27853. The protocol:
as §1

The subject of series [3] is Staphylococcus aureus (ATCC 29213). The class given is cell-based. Particulars: ATCC 29213. The protocol: as §1
Series [4] deals with Candida albicans (ATCC 14053). Particulars: ATCC 14053. The protocol: Antimicrobial and Hemolytic Assays. Antimicrobial susceptibility testing against Staphylococcus aureus (ATCC 29213), Escherichia coli (ATCC 25922), and Pseudomonas aeruginosa (ATCC 27853) was performed using a modification of the National Committee for Clinical Laboratory Standards microdilution broth assay (22). Mueller-Hinton broth (BBL) was used for diluting the peptide stock solution and for diluting the bacterial inoculum. The inoculum was prepared from mid-logarithmic phase cultures. Microtiter plate wells received aliquots-of 100 μL each of the inoculum and peptide dilution. The final concentration of peptide solution ranged-from 0.25 to 256 μg/mL in two-fold dilutions. The final concentration of bacteria in the wells was 5×10^5 CFU/mL. Peptides were tested in duplicate. In addition to the test peptide, three standard peptides and a non-treated growth control were included to validate the assay. The microtiter plates were incubated overnight at 37° C. and the absorbance was measured at 600 nm. […] After incubation at 37° C. for 30 min, the suspension was centrifuged at 10,000×g for 10 min and the absorbance at 400 nm was measured. Complete hemolysis was determined by adding 0.2% Triton X-100 in place of the peptide.
Antimicrobial susceptibility testing against Escherichia coli (ATCC 25922), Staphylococcus aureus (ATCC 29213), Pseudomonas aeruginosa (ATCC 27853), and Candida albicans (ATCC 14053) is performed using a modification of the National Committee for Clinical Laboratory Standards microdilution broth assay. Mueller-Hinton broth (BBL) is used for diluting the peptide stock solution and for diluting the bacterial inoculum. The inoculum is prepared from midlogarithmic phase cultures at an approximate concentration of 10^6 CFU/mL. Microtiter plate wells receive aliquots of 0.1 mL each of the inoculum and peptide dilution. The final concentration of the peptide solution ranges from 0.25 to 256 μg/mL in 2-fold dilutions. The microtiter plates are incubated overnight at 37° C.

The subject of the next series is human erythrocytes. Kind of series: Hemolysis of human erythrocytes. Particulars: red cells of human, 500. The format is cell-based. The protocol: as §1
Series [5] is described as follows: Peptide-induced leakage from calcein-loaded LUV. The protocol: Peptide-Induced Leakage from Calcein-Loaded LUV. The ability of the peptides to release calcein (MW 623) from LUV of varying lipid composition was compared. LUV were prepared as above, except that-the buffer consisted of 50 mM HEPES, 100 mM NaCl, 0.3 mM EDTA, 80 mM calcein, pH 7.4. Calcein-loaded vesicles were separated from free calcein by size-exclusion chromatography using a Sephadex G-50 column and calcein-free buffer. Calcein leakage was monitored using a Perkin-Elmer LS-500 luminescence spectrometer by measuring the time-dependent increase in fluorescence of calcein (excitation=490 nm, emission=520 nm). LUV containing 8 nmoles of lipid were added to 1.5 mL of buffer in a stirred cuvet at 25° C. An aliquot of peptide was added to achieve the desired lipid-to-peptide ratio (256 to 8). Complete leakage was determined by the addition of 20 μL of 10% Triton X-100. Each value represents at least nine different measurements using at least three different LUV preparations.

Series [6] relates to E. coli, S. aureus, and P. aeruginosa. The format is cell-based. The protocol:
Antimicrobial and Hemolytic Assays. Antimicrobial susceptibility testing against Staphylococcus aureus (ATCC 29213), Escherichia coli (ATCC 25922), and Pseudomonas aeruginosa (ATCC 27853) was performed using a modification of the National Committee for Clinical Laboratory Standards microdilution broth assay (22). Mueller-Hinton broth (BBL) was used for diluting the peptide stock solution and for diluting the bacterial inoculum. The inoculum was prepared from mid-logarithmic phase cultures. Microtiter plate wells received aliquots-of 100 μL each of the inoculum and peptide dilution. The final concentration of peptide solution ranged-from 0.25 to 256 μg/mL in two-fold dilutions. The final concentration of bacteria in the wells was 5×10^5 CFU/mL. Peptides were tested in duplicate. In addition to the test peptide, three standard peptides and a non-treated growth control were included to validate the assay. The microtiter plates were incubated overnight at 37° C. and the absorbance was measured at 600 nm. […] Hemolysis at peptide concentrations of 500 μg/mL was determined using a 5% suspension of freshly drawn human erythrocytes, which had been washed twice in phosphate buffered saline. After incubation at 37° C. for 30 min, the suspension was centrifuged at 10,000×g for 10 min and the absorbance at 400 nm was measured. Complete hemolysis was determined by adding 0.2% Triton X-100 in place of the peptide.

≈ marks a conversion by molar mass, not a printed value. Entries after “also recorded” stand apart in the source; their conditions may differ. Where a SMILES comes first, the peptide text is derived from it.

Consider `CC(C)C[C@H](NC(=O)CNC(=O)[C@H](C)NC(=O)[C@H](CC(C)C)NC(=O)[C@H](CCCCN)NC(=O)[C@H](CCCCN)NC(=O)[C@H](C)NC(=O)[C@H](CC(C)C)NC(=O)CNC(=O)[C@H](C)NC(=O)[C@H](CC(C)C)NC(=O)[C@H](CCCCN)NC(=O)[C@H](CCCCN)NC(=O)[C@H](C)NC(=O)[C@H](CC(C)C)NC(=O)CNC(=O)[C@H](C)NC(=O)[C@H](CC(C)C)NC(=O)[C@@H](N)CCCCN)C(=O)N[C@@H](C)C(=O)N[C@@H](CCCCN)C(N)=O` [(KLAGLAK)3-NH2, KLAGLAKKLAGLAKKLAGLAK -NH2] (H-KLAGLAKKLAGLAKKLAGLAK-NH2), for which the “Minimum Inhibitory Concentration, E. coli” value in series [1] worked out at 8 µg/mL. For the same compound, the “Minimum Inhibitory Concentration, P. aeruginosa” value in series [2] turned out to be 128 µg/mL. Besides, the “Minimum Inhibitory Concentration, S. aureus” value in series [3] turned out to be 16 µg/mL. Also, the “Minimum Inhibitory Concentration, C. albicans” value in series [4] is 64 µg/mL. The “% Hemolysis (500 μg/mL)” value in the series on human erythrocytes turned out to be 9%.
`CC[C@H](C)[C@H](NC(=O)CN)C(=O)NCC(=O)N[C@@H](CCCCN)C(=O)N[C@@H](Cc1ccccc1)C(=O)N[C@@H](CC(C)C)C(=O)N[C@@H](Cc1c[nH]cn1)C(=O)N[C@@H](CO)C(=O)N[C@@H](C)C(=O)N[C@@H](CCCCN)C(=O)N[C@@H](CCCCN)C(=O)N[C@@H](Cc1ccccc1)C(=O)NCC(=O)N[C@@H](CCCCN)C(=O)N[C@@H](C)C(=O)N[C@@H](Cc1ccccc1)C(=O)N[C@H](C(=O)NCC(=O)N[C@@H](C)C(=O)N[C@H](C(=O)N[C@@H](CCSC)C(=O)N[C@@H](CC(N)=O)C(=O)N[C@@H](CO)C(N)=O)[C@@H](C)CC)C(C)C` [A19-Magainin 2-NH2, reference compound] (H-GIGKFLHSAKKFGKAFVGAIMNS-NH2): the “Minimum Inhibitory Concentration, E. coli” value in series [1] turned out to be 8 µg/mL. The “Minimum Inhibitory Concentration, P. aeruginosa” value in series [2] was found to be 16 µg/mL. Moreover, the “Minimum Inhibitory Concentration, S. aureus” value in series [3] was 64 µg/mL. In addition, the “Minimum Inhibitory Concentration, C. albicans” value in series [4] was determined as 128 µg/mL. Further, the “% Hemolysis (500 μg/mL)” value in the series with human erythrocytes stood at 29%.
In the case of `CC(C)C[C@H](NC(=O)[C@H](CCCCN)NC(=O)[C@H](CC(C)C)NC(=O)[C@H](CCCCN)NC(=O)[C@H](CC(C)C)NC(=O)[C@H](CCCCN)NC(=O)[C@H](CC(C)C)NC(=O)[C@H](CCCCN)NC(=O)[C@H](CC(C)C)NC(=O)[C@H](CCCCN)NC(=O)[C@H](Cc1c[nH]c2ccccc12)NC(=O)[C@H](CCCCN)NC(=O)[C@H](CC(C)C)NC(=O)[C@H](CCCCN)NC(=O)[C@H](CC(C)C)NC(=O)[C@H](CCCCN)NC(=O)[C@H](CC(C)C)NC(=O)[C@@H](N)CCCCN)C(N)=O` [KL-18, K L K L K L K W K L K L K L K L K L-NH2] (H-KLKLKLKWKLKLKLKLKL-NH2; N-terminus assumed), the “MIC E. coli” value in series [1] is 64 µg/mL (≈ 28.3 µM). Besides, the “MIC Pseud. aerug” value in series [2] amounted to 32 µg/mL (≈ 14.1 µM). For the same compound, the “MIC Staph. aureus” value in series [3] was 16 µg/mL (≈ 7.07 µM). The “calcein leakage from LUV (in words)” value in series [5] (LUVs from E. coli lipids) is recorded as “highly effective”; in series [5] (POPC (PC) LUV), “most potent; also recorded: quite lytic”. The compound also showed an MIC values in series [6] of 4 to 16 µg/mL.
For `CC[C@H](C)[C@H](NC(=O)CN)C(=O)NCC(=O)N[C@@H](CCCCN)C(=O)N[C@@H](Cc1ccccc1)C(=O)N[C@@H](CC(C)C)C(=O)N[C@@H](CCCCN)C(=O)N[C@@H](CCCCN)C(=O)N[C@@H](C)C(=O)N[C@@H](CCCCN)C(=O)N[C@@H](CCCCN)C(=O)N[C@@H](Cc1ccccc1)C(=O)NCC(=O)N[C@@H](CCCCN)C(=O)N[C@@H](C)C(=O)N[C@@H](Cc1ccccc1)C(=O)N[C@H](C(=O)N[C@@H](CCCCN)C(=O)N[C@H](C(=O)N[C@@H](CC(C)C)C(=O)N[C@@H](CCCCN)C(=O)N[C@@H](CCCCN)C(N)=O)[C@@H](C)CC)C(C)C` [MSI-78, reference compound] (H-GIGKFLKKAKKFGKAFVKILKK-NH2), in series [1], the “Minimum Inhibitory Concentration, E. coli” value came out at 8 µg/mL. For the same compound, the “Minimum Inhibitory Concentration, P. aeruginosa” value in series [2] was 4 µg/mL. Moreover, in series [3], the “Minimum Inhibitory Concentration, S. aureus” value is 8 µg/mL. For the same compound, the “Minimum Inhibitory Concentration, C. albicans” value in series [4] was found to be 64 µg/mL. In the series with human erythrocytes, the “% Hemolysis (500 μg/mL)” value is reported as 9%.
As for `CC[C@H](C)[C@H](NC(=O)CN)C(=O)NCC(=O)N[C@@H](CCCCN)C(=O)N[C@@H](Cc1ccccc1)C(=O)N[C@@H](CC(C)C)C(=O)N[C@@H](Cc1c[nH]cn1)C(=O)N[C@@H](CO)C(=O)N[C@@H](C)C(=O)N[C@@H](CCCCN)C(=O)N[C@@H](CCCCN)C(=O)N[C@@H](Cc1ccccc1)C(=O)NCC(=O)N[C@@H](CCCCN)C(=O)N[C@@H](C)C(=O)N[C@@H](Cc1ccccc1)C(=O)N[C@H](C(=O)NCC(=O)N[C@@H](CCC(=O)O)C(=O)N[C@H](C(=O)N[C@@H](CCSC)C(=O)N[C@@H](CC(N)=O)C(=O)N[C@@H](CO)C(N)=O)[C@@H](C)CC)C(C)C` [Magainin 2-NH2, GIGKFLHSAKKFGKAFVGEIMNS -NH2, reference compound] (H-GIGKFLHSAKKFGKAFVGEIMNS-NH2), the “Minimum Inhibitory Concentration, E. coli” value in series [1] stood at 64 µg/mL. For the same compound, the “Minimum Inhibitory Concentration, P. aeruginosa” value in series [2] worked out at 256 µg/mL. In addition, in series [3], the “Minimum Inhibitory Concentration, S. aureus” value is 256 µg/mL. Moreover, the “Minimum Inhibitory Concentration, C. albicans” value in series [4] is more than 256 µg/mL. Moreover, in the series with human erythrocytes, the “% Hemolysis (500 μg/mL)” value is 2%.
